# Target: T1, nitrogen monoxide synthase (NO synthase) (Rattus norvegicus, UniProt P29476)
# T1 construct: the supernatant was then decanted off and frozen in portions; from tissue; host or cells: rat cerebellum (homogenate, 20,000 g supernatant)
# Assay: HTS-NOS assay (nitrogen monoxide synthase assay)
# Assay type: biochemical
# Details: compound at 10 μM; enzyme preparation from rat cerebella; [3H]-arginine substrate
# Description: This assay makes it possible to determine the percentage inhibition of NO synthase by a compound of the general formula I used according to the invention by measuring NOS activity on exposure to the compound. NO synthase is here mixed under suitable conditions together with radioactively labelled arginine and the particular compound of the general formula I. After termination of the NO formation reaction at a predetermined time, the quantity of unconverted arginine is directly or indirectly determined. […] This assay may be carried out at follows: • (a) Incubation of the NO synthase with labelled arginine as the substrate in a reaction vessel, • (b) Separation of the labelled arginine from the labelled citrulline optionally arising as a product of the enzymatic reaction at a time at which the concentration of citrulline is rising, • (c) Measurement of the quantity of arginine separated in each case.
# Separation is performed by means of a filter plate membrane.
# Radioactive arginine is used as the substrate in this HTS-NOS assay. Depending on the type of microtitre plate (MTP), the assay volume may be selected in the range between 25 μl and 250 μl. Depending on the enzyme source used, cofactors and coenzymes are added. The batches are incubated in this microtitre plate (assay MTP) according to step (a) at room temperature and, depending on the enzyme activity used (units), lasts between 5 and 60 minutes. On completion of incubation (step (a)), the plate is placed in a cell harvester, which is equipped with an MTP which has a cation exchange membrane as a filter bottom (filter MTP). All the batches from the assay MTP are transferred into this filter MTP and suction filtered through a cation exchange filter plate, a paper filter loaded with phosphate groups. The filter MTP is then washed with buffer or water. This procedure binds the remaining substrate arginine onto the cation exchanger, while the enzymatically formed radioactive citrulline is quantitatively eluted. Once the filter MTP has been dried and scintillation liquid added, the bound arginine can be counted in the scintillation counter. Low radioactivity indicates an uninhibited NOS reaction. An inhibited enzyme reaction means that the radioactive arginine has not been converted. This means that there is a high level of radioactivity on the filter.
# • Arginine, L-[2,3,4-^3H]-monohydrochloride; item no. […] The pH value of the buffer was adjusted to 7.4 at 25° C. • Washing medium: H2O Enzyme Preparation
# Rat cerebella were used as the starting tissue. The animals were stunned and killed, the brain tissue, the cerebellum, was dissected out, 1 ml of enzyme preparation buffer (4° C.) was added per cerebellum, and the tissue was disrupted for 1 min at 6000 rpm in a Polytron homogeniser. The mixture was then centrifuged at 4° C. for 15 min at 20,000 g, and the supernatant was then decanted off and frozen in portions at −80° C. (discarding the precipitate).
# 96-Well MTPs with a well capacity of ≦250 μl were used Pipetting sequence: see table 1:
# Once the pipetting operation was complete, a lid was laid on top of this MTP (assay MTP). Incubation at 25° C. (room temperature (RT)) for 5-60 min, depending on the quantity and activity of the enzyme used.
# The contents of the assay MTP were then transferred with the assistance of a 96 well cell harvester into a 96 well cation exchange MTP (filter MTP) and suction filtered. A single washing with […] of H2O (from a trough) was then performed.
# The plate was then dried for 1 h at 60° C. in a drying cabinet. The bottom of the filter MTP was then carefully sealed from beneath with a “back seal”. 35 μl of scintillating material were then pipetted into each well. The top of the plate was also sealed with a “top seal”. After 1 hour's waiting time, the plate was assessed on the β-counter.
NOS (% inhibition) [%],inhibition at 10 µM [%],Molecule
40,–,3-(5-Bromo-6-methyl-pyridin-2-ylamino)-5-methyl-5-naphthalen-l-yl-dihydro-furan-2-one [Example 53]
–,61,"Cc1ccc(C2(C)CC(Nc3cc(C)cc(C)n3)C(=O)O2)cc1 (centres unmarked) [Example 10, 3-(4,6-Dimethyl-pyridin-2-ylamino)-5-methyl-5-p-tolyl-dihydro-furan-2-one]"
–,81,"Cc1cccc(C2(C)CC(Nc3cc(C)cc(C)n3)C(=O)O2)c1 (centres unmarked) [Example 11, 3-(4,6-Dimethyl-pyridin-2-ylamino)-5-methyl-5-m-tolyl-dihydro-furan-2-one]"
–,59,"CCOc1ccc(C2(C)CC(Nc3cc(C)cc(C)n3)C(=O)O2)cc1 (centres unmarked) [Example 12, 3-(4,6-Dimethyl-pyridin-2-ylamino)-5-(4-ethoxy-phenyl)-5-methyl-dihydro-furan-2-one]"
–,44,"Cc1cnc(NC2CC(C)(c3ccc(C#N)cc3)OC2=O)c(Br)c1 (centres unmarked) [Example 13, 4-[4-(3-Bromo-5-methyl-pyridin-2-ylamino)-2-methyl-5-oxo-tetrahydro-furan-2-yl]-benzonitrile]"
–,45,"CCCc1cccc(NC2CC(C)(c3ccc(C(C)(C)C)cc3)OC2=O)n1 (centres unmarked) [Example 15, 5-(4-tert-Butyl-phenyl)-5-methyl-3-(6-propyl-pyridin-2-ylamino)-dihydro-furan-2-one]"
–,47,"Cc1ccnc(NC2CC(C)(c3ccc(C(C)(C)C)cc3)OC2=O)c1[N+](=O)[O-] (centres unmarked) [Example 16, 5-(4-tert-Butyl-phenyl)-5-methyl-3-(4-methyl-3-nitro-pyridin-2-ylamino)-dihydro-furan-2-one]"

# The next lines start with the molecule.
Molecule,NOS (% inhibition) [%],inhibition at 10 µM [%]
"Cc1ccc(C2(C)CC(Nc3ccc4cccc(O)c4n3)C(=O)O2)c(C)c1 (centres unmarked) [Example 1, 5-(2,4-Dimethyl-phenyl)-3-(8-hydroxy-quinolin-2-ylamino)-5-methyl-dihydro-furan-2-one]",–,40
"Cc1cc(C)nc(NC2CC(C)(c3ccc(C)c(C)c3)OC2=O)c1 (centres unmarked) [Example 2, 5-(3,4-Dimethyl-phenyl)-3-(4,6-dimethyl-pyridin-2-ylamino)-5-methyl-dihydro-furan-2-one]",–,45
"Cc1cc(C)nc(NC2CC(C)(c3ccc(C)cc3C)OC2=O)c1 (centres unmarked) [Example 3, 5-(2,4-Dimethyl-phenyl)-3-(4,6-dimethyl-pyridin-2-ylamino)-5-methyl-dihydro-furan-2-one]",–,42
"Cc1cc(C)nc(NC2CC(C)(c3ccc(C4CCCCC4)cc3)OC2=O)c1 (centres unmarked) [Example 4, 5-(4-Cyclohexyl-phenyl)-3-(4,6-dimethyl-pyridin-2-ylamino)-5-methyl-dihydro-furan-2-one]",–,45
"Cc1cc(C)cc(C2(C)CC(Nc3cc(C)cc(C)n3)C(=O)O2)c1 (centres unmarked) [Example 5, 5-(3,5-Dimethyl-phenyl)-3-(4,6-dimethyl-pyridin-2-ylamino)-5-methyl-dihydro-furan-2-one]",–,58
"Cc1ccnc(NC2CC(C)(c3ccc(C)c(C)c3)OC2=O)c1 (centres unmarked) [Example 6, 5-(3,4-Dimethyl-phenyl)-5-methyl-3-(4-methyl-pyridin-2-ylamino)-dihydro-furan-2-one]",–,40
"Cc1ccnc(NC2CC(C)(c3ccc(C)cc3C)OC2=O)c1 (centres unmarked) [Example 7, 5-(2,4-Dimethyl-phenyl)-5-methyl-3-(4-methyl-pyridin-2-ylamino)-dihydro-furan-2-one]",–,45
"Cc1ccnc(NC2CC(C)(c3ccc(C4CCCCC4)cc3)OC2=O)c1 (centres unmarked) [Example 8, 5-(4-Cyclohexyl-phenyl)-5-methyl-3-(4-methyl-pyridin-2-ylamino)-dihydro-furan-2-one]",–,41
"Cc1cccc(C2(C)CC(Nc3ccc4ccccc4n3)C(=O)O2)c1 (centres unmarked) [Example 9, 5-Methyl-3-(quinolin-2-ylamino)-5-m-tolyl-dihydro-furan-2-one]",–,51
"Cc1cnc(NC2CC(C)(c3ccc(C(C)(C)C)cc3)OC2=O)c(Br)c1 (centres unmarked) [Example 14, 3-(3-Bromo-5-methyl-pyridin-2-ylamino)-5-(4-tert-butyl-phenyl)-5-methyl-dihydro-furan-2-one]",–,48

# Source: patent publication US6943181B2, “Use of substituted gamma-lactone compounds as pharmaceutical preparations” (Grunenthal GmbH, priority 2001, dated 2005)
